Source: PubChem BioAssay AID218 (DTP/NCI, 2004)
“And” between values parts separate entries of the source, which are not always exact repeats. Equal values may be shown once. Non-standard residues stand in square brackets, D forms with d. Residues, ends and D or L forms follow the SMILES beside them. Ac5c = NC1(C(=O)O)CCCC1

Tested on: C57BL/6 mice, Adenocarcinoma 755 sc, tumor weight T/C
Test: NCI In Vivo Anticancer Drug Screen. Data for tumor model Adenocarcinoma 755 (subcutaneous) in C57BL/6 mice
Conditions: endpoint: mean tumor weight, higher = larger tumour
Procedure: The antitumor activity of compounds was measured in mice bearing transplantable tumors. Survival or tumor size were measured and the results are expressed as the measurement made in the treated group (T) divided by the measurement made in the vehicle treated control group (C). The tumor model used in this assay is Adenocarcinoma 755 (subcutaneous) in C57BL/6 mice

[1] = dose: 75.0 mg/kg/injection, schedule: Q01DX011 (ip), vehicle: saline
[2] = dose: 150.0 mg/kg/injection, schedule: Q01DX011 (ip), vehicle: saline
[3] = dose: 25.0 mg/kg/injection, schedule: Q01DX011 (ip), vehicle: saline
[4] = dose: 50.0 mg/kg/injection, schedule: Q01DX011 (ip), vehicle: saline
[5] = dose: 100.0 mg/kg/injection, schedule: Q01DX011 (ip), vehicle: saline
[6] = dose: 20.0 mg/kg/injection, schedule: Q01DX011 (ip), vehicle: saline
[7] = dose: 30.0 mg/kg/injection, schedule: Q01DX011 (ip), vehicle: saline
[8] = dose: 40.0 mg/kg/injection, schedule: Q01DX011 (ip), vehicle: saline
[9] = dose: 1.25 mg/kg/injection, schedule: Q01DX011 (ip), vehicle: carboxymethylcellulose (CMC)
[10] = dose: 2.5 mg/kg/injection, schedule: Q01DX011 (ip), vehicle: carboxymethylcellulose (CMC)
[11] = dose: 7.5 mg/kg/injection, schedule: Q01DX011 (ip), vehicle: saline
[12] = dose: 10.0 mg/kg/injection, schedule: Q01DX011 (ip), vehicle: saline
[13] = dose: 15.0 mg/kg/injection, schedule: Q01DX011 (ip), vehicle: saline
[14] = dose: 3.75 mg/kg/injection, schedule: Q01DX011 (ip), vehicle: saline
[15] = dose: 12.5 mg/kg/injection, schedule: Q01DX011 (ip), vehicle: saline
[16] = dose: 200.0 mg/kg/injection, schedule: Q01DX011 (ip), vehicle: saline

## CC(=O)OCC(=O)[C@@]1(O)CC[C@H]2[C@@H]3CCC4=CC(=O)CC[C@]4(C)[C@H]3C(=O)C[C@@]21C
dose: 40.0 mg/kg/injection, schedule: Q01DX011 (sc), vehicle: saline
  T/C: 24 % of control
dose: 45.0 mg/kg/injection, schedule: Q01DX011 (sc), vehicle: saline
  T/C: 43 % of control
dose: 50.0 mg/kg/injection, schedule: Q01DX011 (sc), vehicle: saline
  T/C: 16 % of control
dose: 60.0 mg/kg/injection, schedule: Q01DX011 (sc), vehicle: saline
  T/C: 15 % of control and 39 % of control
dose: 100.0 mg/kg/injection, schedule: Q01DX011 (sc), vehicle: saline
  T/C: 8 % of control

## O=c1[nH]c(=O)c2n[nH]nc2[nH]1
[1]
  T/C: 154 % of control
[2]
  T/C: 115 % of control

## CN1CC(=O)N=C1N
dose: 1000.0 mg/kg/injection, schedule: Q01DX011 (ip), vehicle: saline
  T/C: 121 % of control

## CCn1cnc2c(Cl)ncnc21
[3]
  T/C: 29 % of control
[4]
  T/C: 10 % of control
[5]
  T/C: 1 % of control

## O=C(O)c1cc(=O)[nH]c(=S)[nH]1
[6]
  T/C: 91 % of control
[7]
  T/C: 121 % of control
[8]
  T/C: 78 % of control
[4]
  T/C: 82 % of control

## CSc1ncnc2nc[nH]c12
[9]
  T/C: 16 % of control
[10]
  T/C: 8 % of control
[11]
  T/C: 58 % of control
[12]
  T/C: 23 % of control
[13]
  T/C: 2 % of control
[6]
  T/C: 6 % of control and 9 % of control
dose: 30.0 mg/kg/injection, schedule: Q01DX011 (ip), vehicle: carboxymethylcellulose (CMC)
  T/C: 5 % of control
[7]
  T/C: 1 % of control and 2 % of control and 9 % of control
dose: 40.0 mg/kg/injection, schedule: Q01DX011 (ip), vehicle: carboxymethylcellulose (CMC)
  T/C: 2 % of control
[8]
  T/C: 3 % of control
dose: 50.0 mg/kg/injection, schedule: Q01DX011 (ip), vehicle: carboxymethylcellulose (CMC)
  T/C: 3 % of control

## O=P1(N(CCF)CCF)NCCCO1 (stereo not drawn)
dose: 0.94 mg/kg/injection, schedule: Q01DX011 (ip), vehicle: saline
  T/C: 40 % of control
dose: 1.88 mg/kg/injection, schedule: Q01DX011 (ip), vehicle: saline
  T/C: 56 % of control
[14]
  T/C: 22 % of control

## O=C([O][Hg][CH2]C1COC([CH2][Hg][O]C(=O)c2ccccc2)CO1)c1ccccc1 (stereo not drawn)
dose: 16.0 mg/kg/injection, schedule: Q01DX009 (ip), vehicle: saline
  T/C: 82 % of control
dose: 32.0 mg/kg/injection, schedule: Q01DX009 (ip), vehicle: saline
  T/C: 77 % of control
dose: 32.0 mg/kg/injection, schedule: Q01DX010 (ip), vehicle: saline
  T/C: 48 % of control

## Clc1ncnc2c1ncn2Cc1ccco1
[15]
  T/C: 63 % of control
[3]
  T/C: 62 % of control
[4]
  T/C: 86 % of control
[5]
  T/C: 51 % of control

## O=c1[nH]cc(F)c(=O)[nH]1
dose: 10.0 mg/kg/injection, schedule: Q01DX011 (ip), vehicle: carboxymethylcellulose (CMC)
  T/C: 7 % of control
dose: 20.0 mg/kg/injection, schedule: Q01DX011 (ip), vehicle: carboxymethylcellulose (CMC)
  T/C: 61 % of control

## Nc1nc(SCc2ccccc2)c2[nH]cnc2n1
dose: 2.5 mg/kg/injection, schedule: Q01DX011 (ip), vehicle: saline
  T/C: 17 % of control
dose: 5.0 mg/kg/injection, schedule: Q01DX011 (ip), vehicle: saline
  T/C: 5 % of control
[12]
  T/C: 2 % of control

## [N-]=[N+]=CC(=O)CCC(N)C(=O)O (stereo not drawn)
dose: 0.04 mg/kg/injection, schedule: Q01DX011 (ip), vehicle: saline
  T/C: 110 % of control
dose: 0.05 mg/kg/injection, schedule: Q01DX011 (ip), vehicle: saline
  T/C: 22 % of control
dose: 0.08 mg/kg/injection, schedule: Q01DX011 (ip), vehicle: saline
  T/C: 46 % of control
dose: 25.0 micrograms/kg/injection, schedule: Q01DX011 (ip), vehicle: saline
  T/C: 39 % of control
dose: 50.0 micrograms/kg/injection, schedule: Q01DX011 (ip), vehicle: saline
  T/C: 45 % of control

## O=C(c1ccc(C(=O)N2CC2)cc1)N1CC1
dose: 12.5 mg/kg/injection, schedule: Q01DX011 (ip), vehicle: methylcellulose (MC)
  T/C: 60 % of control
dose: 25.0 mg/kg/injection, schedule: Q01DX011 (ip), vehicle: methylcellulose (MC)
  T/C: 53 % of control

## O=c1[nH]cc(S)c(=O)[nH]1
dose: 100.0 mg/kg/injection, schedule: Q02DX006 (ip), vehicle: other
  T/C: 86 % of control
dose: 125.0 mg/kg/injection, schedule: Q02DX006 (ip), vehicle: other
  T/C: 76 % of control

## CCCCn1cnc2c(SSc3ncnc4c3ncn4CCCC)ncnc21
[14]
  T/C: 26 % of control
[11]
  T/C: 7 % of control
[13]
  T/C: 7 % of control
[7]
  T/C: 6 % of control

## Clc1ccccc1CSc1ncnc2nc[nH]c12
[1]
  T/C: 13 % of control
[5]
  T/C: 5 % of control
[2]
  T/C: 1 % of control
[16]
  T/C: 13 % of control

## O=c1[nH]c(=O)n(C2CC(O)C(CO)O2)cc1C(F)(F)F (stereo not drawn)
[15]
  T/C: 81 % of control
[3]
  T/C: 52 % of control
[4]
  T/C: 27 % of control
[5]
  T/C: 27 % of control

## C1CN1c1nc(N2CC2)nc(N2CC2)n1
dose: 0.1 mg/kg/injection, schedule: Q01DX011 (ip), vehicle: saline
  T/C: 28 % of control
dose: 0.11 mg/kg/injection, schedule: Q01DX011 (ip), vehicle: saline
  T/C: 44 % of control
dose: 0.13 mg/kg/injection, schedule: Q01DX011 (ip), vehicle: saline
  T/C: 61 % of control
dose: 0.15 mg/kg/injection, schedule: Q01DX011 (ip), vehicle: saline
  T/C: 21 % of control
dose: 0.2 mg/kg/injection, schedule: Q01DX011 (ip), vehicle: saline
  T/C: 12 % of control
dose: 0.25 mg/kg/injection, schedule: Q02DX006 (ip), vehicle: saline
  T/C: 80 % of control
dose: 0.3 mg/kg/injection, schedule: Q01DX011 (ip), vehicle: saline
  T/C: 5 % of control
dose: 0.5 mg/kg/injection, schedule: Q01DX011 (ip), vehicle: saline
  T/C: 19 % of control
dose: 0.5 mg/kg/injection, schedule: Q02DX006 (ip), vehicle: saline
  T/C: 121 % of control

## c1ccc(Sc2ncnc3nc[nH]c23)cc1
[4]
  T/C: 15 % of control
[1]
  T/C: 14 % of control
[5]
  T/C: 5 % of control

## CCOC(N)=O
[16]
  T/C: 34 % of control
dose: 300.0 mg/kg/injection, schedule: Q01DX011 (ip), vehicle: saline
  T/C: 38 % of control
dose: 400.0 mg/kg/injection, schedule: Q01DX011 (ip), vehicle: saline
  T/C: 20 % of control
dose: 500.0 mg/kg/injection, schedule: Q02DX006 (ip), vehicle: water
  T/C: 49 % of control
dose: 600.0 mg/kg/injection, schedule: Q01DX011 (ip), vehicle: saline
  T/C: 3 % of control
dose: 600.0 mg/kg/injection, schedule: Q02DX006 (ip), vehicle: water
  T/C: 34 % of control

## OCC1OC(n2cnc3c(=S)nc[nH]c32)C(O)C1O (stereo not drawn)
dose: 0.5 mg/kg/injection, schedule: Q01DX011 (ip), vehicle: carboxymethylcellulose (CMC)
  T/C: 29 % of control
[9]
  T/C: 13 % of control
[10]
  T/C: 3 % of control
dose: 34.0 mg/kg/injection, schedule: Q01DX011 (ip), vehicle: saline
  T/C: 2 % of control
dose: 320.0 mg/kg/injection, schedule: Q01DX001 (oral), vehicle: alkali diluted with saline
  T/C: 10 % of control
dose: 320.0 mg/kg/injection, schedule: Q03DX004 (oral), vehicle: alkali diluted with saline
  T/C: 2 % of control
dose: 320.0 mg/kg/injection, schedule: Q07DX002 (oral), vehicle: alkali diluted with saline
  T/C: 5 % of control
dose: 480.0 mg/kg/injection, schedule: Q01DX001 (oral), vehicle: alkali diluted with saline
  T/C: 12 % of control
dose: 480.0 mg/kg/injection, schedule: Q03DX004 (oral), vehicle: alkali diluted with saline
  T/C: 6 % of control
dose: 480.0 mg/kg/injection, schedule: Q07DX002 (oral), vehicle: alkali diluted with saline
  T/C: 5 % of control
dose: 640.0 mg/kg/injection, schedule: Q01DX001 (oral), vehicle: alkali diluted with saline
  T/C: 68 % of control
dose: 640.0 mg/kg/injection, schedule: Q03DX004 (oral), vehicle: alkali diluted with saline
  T/C: 1 % of control
dose: 640.0 mg/kg/injection, schedule: Q07DX002 (oral), vehicle: alkali diluted with saline
  T/C: 32 % of control

## NCC(=O)NC1(C(=O)O)CCCC1 (H-Gly-[Ac5c]-OH)
[3]
  T/C: 58 % of control
[4]
  T/C: 37 % of control
[5]
  T/C: 9 % of control

## N/C(=N/N=C/c1ccc([N+](=O)[O-])cc1)N[N+](=O)[O-]
dose: 150.0 mg/kg/injection, schedule: Q02DX006 (ip), vehicle: saline
  T/C: 53 % of control
dose: 200.0 mg/kg/injection, schedule: Q02DX006 (ip), vehicle: saline
  T/C: 37 % of control
